Results as given in patent publication US20240207292A1, “BORONIC ACID COMPOUNDS, COMPOSITIONS AND METHODS” (Trustees of Tufts College, priority 2021, published 2024).

Assays:
[1] = target: recombinant human dipeptidyl peptidase IV (DPPIV) (Homo sapiens (Human), UniProt P27487); assay: In vitro assay dipeptidyl peptidase IV IC50 (Example 21); type: biochemical
[2] = target: recombinant human fibroblast activation protein (FAP) (Homo sapiens (Human), UniProt Q12884); assay: In vitro assay fibroblast activation protein IC50 (Example 21); type: biochemical
[3] = Effect of N-acetyl methionine (NAM) on stability of 6522/6555 with 50 mM AAPH at 80° C. for 30 mins; type: physicochemical; conditions: pH 5.0, 2 mg/mL
Protocol: Effect of N-acetyl methionine (NAM) on the stability of the compound 6522 (6522 compound structure immediately below) 80° C. in the presence of AAPH 2,2′-azobis-(2-amidopropane)hydrochloride, a free radical generator.
• Concentration:2 mg/mL • Reaction condition: add 50 mM AAPH, at 80° C. for 30 mins

[4] = Stability of 6555 with sulfur-containing and other stabilizers, 50 mM AAPH at 80° C. for 30 mins (Tables 7-9); type: physicochemical; conditions: 50 mM AAPH, 80° C., 0.5 hr, (+) mode
Source text: The effect of specified sulfur-containing compounds and other stabilizer compounds (including non-sulfur-containing stabilizer compounds) and mixtures of sulfur-containing compounds and non-sulfur-containing stabilizer compounds with the boronic acid compound 6555 (structure shown above) at various pH values.

Chain of recombinant human fibroblast activation protein (FAP) (Q12884 whole entry): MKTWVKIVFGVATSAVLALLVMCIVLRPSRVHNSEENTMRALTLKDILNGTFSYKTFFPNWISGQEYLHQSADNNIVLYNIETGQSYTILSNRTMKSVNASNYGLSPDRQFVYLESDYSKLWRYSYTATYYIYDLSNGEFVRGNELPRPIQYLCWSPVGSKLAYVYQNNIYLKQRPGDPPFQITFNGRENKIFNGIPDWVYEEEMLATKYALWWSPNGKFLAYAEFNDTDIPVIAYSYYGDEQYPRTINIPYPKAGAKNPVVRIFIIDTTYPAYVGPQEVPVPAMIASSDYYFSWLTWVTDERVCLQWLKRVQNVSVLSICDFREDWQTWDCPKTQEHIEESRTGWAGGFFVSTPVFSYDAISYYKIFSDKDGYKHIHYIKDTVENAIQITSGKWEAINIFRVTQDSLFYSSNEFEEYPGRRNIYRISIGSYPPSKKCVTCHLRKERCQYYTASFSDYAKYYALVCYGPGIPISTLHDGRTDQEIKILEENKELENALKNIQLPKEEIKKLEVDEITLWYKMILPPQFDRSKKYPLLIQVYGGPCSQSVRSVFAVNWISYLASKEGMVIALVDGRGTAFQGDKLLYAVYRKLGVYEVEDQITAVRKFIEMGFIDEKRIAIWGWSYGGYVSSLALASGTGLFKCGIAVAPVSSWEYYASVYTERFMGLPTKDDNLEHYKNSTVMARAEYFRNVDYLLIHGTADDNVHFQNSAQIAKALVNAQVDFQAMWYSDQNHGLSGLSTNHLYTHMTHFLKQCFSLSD
Chain of recombinant human dipeptidyl peptidase IV (DPPIV) (P27487 whole entry): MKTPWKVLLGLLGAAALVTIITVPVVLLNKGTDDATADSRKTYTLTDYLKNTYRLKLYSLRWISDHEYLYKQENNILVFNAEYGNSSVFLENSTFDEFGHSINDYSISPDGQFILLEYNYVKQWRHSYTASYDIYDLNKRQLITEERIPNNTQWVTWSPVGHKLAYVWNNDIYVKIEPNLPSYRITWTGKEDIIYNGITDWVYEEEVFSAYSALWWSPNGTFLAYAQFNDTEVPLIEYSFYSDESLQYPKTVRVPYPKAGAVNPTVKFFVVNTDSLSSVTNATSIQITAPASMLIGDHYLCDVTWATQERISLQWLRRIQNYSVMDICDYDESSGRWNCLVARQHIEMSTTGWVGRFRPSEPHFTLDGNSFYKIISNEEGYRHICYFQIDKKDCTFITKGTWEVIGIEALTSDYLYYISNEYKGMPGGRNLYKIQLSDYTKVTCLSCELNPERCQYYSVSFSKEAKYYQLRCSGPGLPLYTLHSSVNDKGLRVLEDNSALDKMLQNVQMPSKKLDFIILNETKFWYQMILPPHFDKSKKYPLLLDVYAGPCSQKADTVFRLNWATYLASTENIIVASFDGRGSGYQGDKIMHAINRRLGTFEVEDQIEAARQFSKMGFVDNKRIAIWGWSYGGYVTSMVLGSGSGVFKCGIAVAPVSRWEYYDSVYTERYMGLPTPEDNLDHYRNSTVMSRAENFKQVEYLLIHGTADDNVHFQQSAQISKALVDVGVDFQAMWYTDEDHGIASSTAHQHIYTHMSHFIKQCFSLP

IC50 [1]: > 100000 nM
IC50 [2]: 3.8 nM
6555 Remain (%) ([3]; NAM 0 mM): 64.5%
6555 Remain (%) ([3]; NAM 10 mM): 81.7%
6555 Remain (%) ([3]; NAM 40 mM): 82.9%
6555 Remain (%) ([3]; NAM 80 mM): 85.0%
6555 Remain (%) ([3]; NAM 100 mM): 85.6%
6555 Remain (%) ([3]; NAM 200 mM): 87.3%
6555 Remain (%) ([3]; NAM 400 mM): 90.2%
6555 Remaining (%) ([4]; NAM 5 mM, sodium metabisulfite 5 mM, pH 4.3): 88.8%
6555 Remaining (%) ([4]; NAM 25 mM, pH 4.0): 85.9%
6555 Remaining (%) ([4]; no stabilizer, pH 4.6): 55.8%
6555 Remaining (%) ([4]; sodium ascorbate 2.5 mM, sodium gentisate 1 mM, Acetone sodium bisulfite (2.5 mM), pH 4.6): 73.1%
6555 Remaining (%) ([4]; sodium ascorbate 2.5 mM, sodium gentisate 1 mM, Acetone sodium bisulfite (25 mM), pH 4.6): 94.0%
6555 Remaining (%) ([4]; sodium ascorbate 2.5 mM, sodium gentisate 1 mM, D-mannitol (25 mM), pH 4.5): 15.5%
6555 Remaining (%) ([4]; sodium ascorbate 2.5 mM, sodium gentisate 1 mM, Disodium hydrosulfite (25 mM), pH 4.3): 94.1%
6555 Remaining (%) ([4]; sodium ascorbate 2.5 mM, sodium gentisate 1 mM, MSM(dimethyl sulfone) (25 mM), pH 4.5): 8.2%
6555 Remaining (%) ([4]; sodium ascorbate 2.5 mM, sodium gentisate 1 mM, N-Acetyl-L-phenylalanine (25 mM), pH 4.0): 20.1%
6555 Remaining (%) ([4]; sodium ascorbate 2.5 mM, sodium gentisate 1 mM, N-Acetyl-L-tyrosine (25 mM), pH 4.0): 13.6%
6555 Remaining (%) ([4]; sodium ascorbate 2.5 mM, sodium gentisate 1 mM, NAC (25 mM), pH 4.1): 31.4%
6555 Remaining (%) ([4]; sodium ascorbate 2.5 mM, sodium gentisate 1 mM, NAM 2.5 mM, sodium metabisulfite 2.5 mM, pH 4.5): 94.8%
6555 Remaining (%) ([4]; sodium ascorbate 2.5 mM, sodium gentisate 1 mM, NAM 2.5 mM, pH 4.5): 53.3%
6555 Remaining (%) ([4]; sodium ascorbate 2.5 mM, sodium gentisate 1 mM, NAM 10 mM, sodium metabisulfite 2.5 mM, pH 4.0): 93.2%
6555 Remaining (%) ([4]; sodium ascorbate 2.5 mM, sodium gentisate 1 mM, NAM 25 mM, sodium metabisulfite 2.5 mM, pH 4.0): 92.2%
6555 Remaining (%) ([4]; sodium ascorbate 2.5 mM, sodium gentisate 1 mM, NAM 25 mM, pH 4.0): 90.8%
6555 Remaining (%) ([4]; sodium ascorbate 2.5 mM, sodium gentisate 1 mM, Potassium metabisulfite (2.5 mM), pH 4.4): 93.7%
6555 Remaining (%) ([4]; sodium ascorbate 2.5 mM, sodium gentisate 1 mM, Potassium metabisulfite (25 mM), pH 4.5): 94.1%
6555 Remaining (%) ([4]; sodium ascorbate 2.5 mM, sodium gentisate 1 mM, Sodium L-Glutamate monohydrate (concentration cut off), pH 4.7): 8.2%
6555 Remaining (%) ([4]; sodium ascorbate 2.5 mM, sodium gentisate 1 mM, Sodium formaldehydesulfoxylate di (concentration cut off), pH 4.4): 91.7%
6555 Remaining (%) ([4]; sodium ascorbate 2.5 mM, sodium gentisate 1 mM, Sodium formaldehydesulfoxylate di (concentration cut off, second entry), pH 4.5): 58.0%
6555 Remaining (%) ([4]; sodium ascorbate 2.5 mM, sodium gentisate 1 mM, Sodium sulfite (2.5 mM), pH 4.5): 67.9%
6555 Remaining (%) ([4]; sodium ascorbate 2.5 mM, sodium gentisate 1 mM, Sodium sulfite (5 mM), pH 4.6): 90.3%
6555 Remaining (%) ([4]; sodium ascorbate 2.5 mM, sodium gentisate 1 mM, Sodium sulfite (10 mM), pH 4.8): 93.8%
6555 Remaining (%) ([4]; sodium ascorbate 2.5 mM, sodium gentisate 1 mM, Sodium sulfite (25 mM), pH 5.1): 94.1%
6555 Remaining (%) ([4]; sodium ascorbate 2.5 mM, sodium gentisate 1 mM, Thiourea (25 mM), pH 4.5): 84.1%
6555 Remaining (%) ([4]; sodium ascorbate 2.5 mM, sodium gentisate 1 mM, disodium hydrosulfite 1 mM, pH 4.5): 47.4%
6555 Remaining (%) ([4]; sodium ascorbate 2.5 mM, sodium gentisate 1 mM, disodium hydrosulfite 2.5 mM, pH 4.4): 91.7%
6555 Remaining (%) ([4]; sodium ascorbate 2.5 mM, sodium gentisate 1 mM, disodium hydrosulfite 5.0 mM, pH 4.5): 94.3%
6555 Remaining (%) ([4]; sodium ascorbate 2.5 mM, sodium gentisate 1 mM, disodium hydrosulfite 10.0 mM, pH 4.5): 94.1%
6555 Remaining (%) ([4]; sodium ascorbate 2.5 mM, sodium gentisate 1 mM, disodium hydrosulfite 40.0 mM, pH 4.0): 94.6%
6555 Remaining (%) ([4]; sodium ascorbate 2.5 mM, sodium gentisate 1 mM, sodium metabisulfite 1 mM, pH 4.5): 71.1%
6555 Remaining (%) ([4]; sodium ascorbate 2.5 mM, sodium gentisate 1 mM, sodium metabisulfite 2.5 mM, pH 4.5): 93.4%
6555 Remaining (%) ([4]; sodium ascorbate 2.5 mM, sodium gentisate 1 mM, sodium metabisulfite 25 mM, pH 4.4): 93.8%
6555 Remaining (%) ([4]; sodium ascorbate 2.5 mM, sodium gentisate 1 mM, pH 4.6): 30.8%
6555 Remaining (%) ([4]; sodium ascorbate 2.5 mM, sodium gentisate 1 mM, pH 5.1): 16.7%
6555 Remaining (%) ([4]; sodium ascorbate 5 mM, sodium gentisate 2 mM, NAM 5 mM, disodium hydrosulfite 5 mM, pH 4.5): 95.7%
6555 Remaining (%) ([4]; sodium ascorbate 5 mM, sodium gentisate 2 mM, NAM 5 mM, sodium metabisulfite 5 mM, pH 4.5): 95.8%
6555 Remaining (%) ([4]; sodium ascorbate 5 mM, sodium gentisate 2 mM, NAM 5 mM, pH 4.5): 66.5%
SMILES: C[C@@H](NC(=O)c1ccc(CNC(=O)CN2CCN(CC(=O)O)CCN(CC(=O)O)CCN(CC(=O)O)CC2)cc1)C(=O)N1CCC[C@H]1B(O)O [compound 6555, DOTA-aminomethyl-Bz-D-Ala-boroPro]
